According to US9902696B2, “1,4-substituted piperidine derivatives” (Cephalon, Inc., priority 2015, dated 2018):
Where a name gives a salt, the structure may show the parent alone. Read-outs that look alike come from different tables or passages of the source.

Target: T1, recombinant human baculovirus-expressed GST-tagged FASN (Homo sapiens, UniProt P49327)
T1 construct: GST
Test: FASN enzyme activity assay, fluorescence-based detection of CoA with CPM
Format: biochemical
Conditions: 5 nM FASN, 150 μM NADPH, 10 μM acetyl-CoA, 25 μM malonyl-CoA, 90 minutes incubation
Outline: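 Human GST-tagged FASN, baculovirus-expressed (5 nM), in 50 mM HEPES pH 7.5 with 150 μM NADPH, 10 μM acetyl-CoA, 25 μM malonyl-CoA, 0.5% DMSO; malonyl-CoA-started, 90 min. Released CoA detected with CPM (50 μM dilution), 30 min, fluorescence ex 390/em 530. IC50 from variable-slope sigmoidal fit of % inhibition versus log concentration.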

[1] = read-out: IC50 data for Compounds of Formulae I-V/V(a): Activity
[2] = read-out: IC50 data for Additional Compounds of Formulae I-V(a): Activity

T1 sequence (P49327 whole entry): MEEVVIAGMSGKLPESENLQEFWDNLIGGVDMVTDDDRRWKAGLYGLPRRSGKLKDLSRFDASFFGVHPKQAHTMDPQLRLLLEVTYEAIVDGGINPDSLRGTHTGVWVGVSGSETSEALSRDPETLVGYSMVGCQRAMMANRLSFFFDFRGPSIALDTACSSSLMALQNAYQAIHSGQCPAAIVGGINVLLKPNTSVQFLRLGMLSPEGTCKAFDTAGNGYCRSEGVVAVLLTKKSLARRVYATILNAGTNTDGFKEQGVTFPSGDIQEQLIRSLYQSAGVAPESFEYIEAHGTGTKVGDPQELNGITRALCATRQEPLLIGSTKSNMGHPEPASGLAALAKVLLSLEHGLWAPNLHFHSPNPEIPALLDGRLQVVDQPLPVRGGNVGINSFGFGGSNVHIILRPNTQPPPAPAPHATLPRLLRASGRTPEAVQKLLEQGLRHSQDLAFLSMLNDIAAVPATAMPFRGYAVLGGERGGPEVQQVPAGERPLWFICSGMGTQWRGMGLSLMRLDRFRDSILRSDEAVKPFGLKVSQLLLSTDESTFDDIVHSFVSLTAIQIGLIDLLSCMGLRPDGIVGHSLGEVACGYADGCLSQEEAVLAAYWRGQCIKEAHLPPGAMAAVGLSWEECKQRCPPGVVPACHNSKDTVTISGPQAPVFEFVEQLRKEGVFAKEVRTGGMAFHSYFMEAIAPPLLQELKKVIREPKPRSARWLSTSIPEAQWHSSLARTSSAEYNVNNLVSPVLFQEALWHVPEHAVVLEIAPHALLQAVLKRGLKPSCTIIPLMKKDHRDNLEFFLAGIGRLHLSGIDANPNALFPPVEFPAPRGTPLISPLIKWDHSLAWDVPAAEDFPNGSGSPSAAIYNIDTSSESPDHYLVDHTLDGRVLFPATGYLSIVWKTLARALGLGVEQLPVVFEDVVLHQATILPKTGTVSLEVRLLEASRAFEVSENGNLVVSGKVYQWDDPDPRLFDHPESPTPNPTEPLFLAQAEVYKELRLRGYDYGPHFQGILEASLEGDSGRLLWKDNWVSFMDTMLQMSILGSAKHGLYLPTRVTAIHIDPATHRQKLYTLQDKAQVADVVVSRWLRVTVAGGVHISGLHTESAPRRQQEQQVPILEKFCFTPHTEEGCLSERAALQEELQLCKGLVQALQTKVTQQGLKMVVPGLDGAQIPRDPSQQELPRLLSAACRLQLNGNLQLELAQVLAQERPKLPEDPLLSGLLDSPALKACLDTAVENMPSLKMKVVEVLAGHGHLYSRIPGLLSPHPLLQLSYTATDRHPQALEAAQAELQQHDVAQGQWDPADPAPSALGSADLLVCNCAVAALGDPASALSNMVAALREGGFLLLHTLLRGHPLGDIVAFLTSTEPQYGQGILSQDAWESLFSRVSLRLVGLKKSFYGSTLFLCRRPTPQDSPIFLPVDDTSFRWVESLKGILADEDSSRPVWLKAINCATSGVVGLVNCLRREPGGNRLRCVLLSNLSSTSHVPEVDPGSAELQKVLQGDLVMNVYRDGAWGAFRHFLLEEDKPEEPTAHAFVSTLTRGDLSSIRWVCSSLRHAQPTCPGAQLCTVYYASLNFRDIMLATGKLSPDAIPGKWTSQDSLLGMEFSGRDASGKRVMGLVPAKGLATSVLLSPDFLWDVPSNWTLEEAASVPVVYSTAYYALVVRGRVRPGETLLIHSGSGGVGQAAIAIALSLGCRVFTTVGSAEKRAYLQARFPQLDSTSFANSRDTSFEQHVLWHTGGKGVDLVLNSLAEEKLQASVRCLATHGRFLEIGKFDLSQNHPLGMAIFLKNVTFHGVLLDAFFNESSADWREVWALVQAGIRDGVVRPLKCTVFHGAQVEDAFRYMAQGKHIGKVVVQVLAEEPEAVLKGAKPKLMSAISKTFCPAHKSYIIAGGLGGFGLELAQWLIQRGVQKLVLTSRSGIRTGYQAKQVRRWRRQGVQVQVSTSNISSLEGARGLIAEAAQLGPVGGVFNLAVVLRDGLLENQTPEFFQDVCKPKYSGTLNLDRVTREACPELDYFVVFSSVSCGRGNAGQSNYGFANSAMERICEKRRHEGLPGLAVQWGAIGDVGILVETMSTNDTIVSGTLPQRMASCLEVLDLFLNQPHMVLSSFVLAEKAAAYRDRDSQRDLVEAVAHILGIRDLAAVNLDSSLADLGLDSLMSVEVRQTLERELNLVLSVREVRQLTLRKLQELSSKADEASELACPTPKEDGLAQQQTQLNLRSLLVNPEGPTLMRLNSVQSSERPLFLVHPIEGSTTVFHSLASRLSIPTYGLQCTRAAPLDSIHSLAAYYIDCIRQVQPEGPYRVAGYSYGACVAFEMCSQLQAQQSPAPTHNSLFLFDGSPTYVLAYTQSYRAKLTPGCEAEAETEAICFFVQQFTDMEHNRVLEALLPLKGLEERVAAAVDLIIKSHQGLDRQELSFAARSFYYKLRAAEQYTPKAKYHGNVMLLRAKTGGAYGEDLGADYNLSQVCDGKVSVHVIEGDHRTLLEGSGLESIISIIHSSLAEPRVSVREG

Compound | IC50 [1] [nM] | IC50 [2] [nM]
Cc1nccc2c(C)c(-c3ccc(OC4CCN(C(=O)[C@H]5CCCO5)CC4)cc3)ccc12 [Example 474, [4-[4-(1,5-Dimethyl-6-isoquinolyl)phenoxy]-1-piperidyl]-[(2R)-tetrahydrofuran-2-yl]methanone, HCl] | 1 to 99 | –
COc1cc2ncc(-c3ccc(OC4CCN(C(=O)[C@H]5CCCO5)CC4)cc3)cc2cc1C [Example 443, {4-[4-(7-Methoxy-6-methylquinolin-3-yl)-phenoxy]-piperidin-1-yl}-(R)-tetrahydrofuran-2-yl-methanone] | 1000 to 10000 | –
Cc1c(-c2ccc(OC3CCN(C(=O)N(C)C)CC3)cc2)ccc2cccnc12 [Example 89, N,N-dimethyl-4-[4-(8-methyl-7-quinolyl)phenoxy]piperidine-1-carboxamide] | 1 to 99 | –
Cc1c(-c2ccc(OC3CCN(C(=O)C4CC4)CC3C)cc2)ccc2cccnc12 (centres unmarked) [Example 376, Cyclopropyl-{3-methyl-4-[4-(8-methylquinolin-7-yl)-phenoxy]-piperidin-1-yl}-methanone, TFA salt] | 1 to 99 | –
Cn1ncc2ccc(-c3ccc(OC4CCN(C(=O)[C@H]5CCCO5)CC4)cc3)cc21 [Example 317, {4-[4-(1-Methyl-1H-indazol-6-yl)-phenoxy]-piperidin-1-yl}-(R)-tetrahydrofuran-2-yl-methanone; compound with trifluoroacetic acid] | 1 to 99 | –
O=C(C1CC1)N1CCC(Oc2ccc(-c3ccc4cnccc4c3)cc2)CC1 [Example 466, Cyclopropyl-[4-(4-isoquinolin-6-yl-phenoxy)-piperidin-1-yl]-methanone] | 1 to 99 | –
Cc1c(-c2ccc(OC3CCN(C(=O)NOC(C)C)CC3)cc2)ccc2nccn12 [Example 600, N-Isopropoxy-4-[4-(5-methylimidazo[1,2-a]pyridin-6-yl)phenoxy]piperidine-1-carboxamide] | – | 100 to 999
Cc1c(-c2ccc(OC3CCN(C(=O)OCC(C)C)CC3)cc2)ccc2cccnc12 [Example 550, Isobutyl 4-[4-(8-methyl-7-quinolyl)phenoxy]piperidine-1-carboxylate, HCl] | – | 1000 to 10000
O=C(C1CC1)N1CCC(Oc2ccc(-c3cnc4ccoc4c3)cc2)CC1 [Example 52, Cyclopropyl-[4-(4-furo[3,2-b]pyridin-6-yl-phenoxy)-piperidin-1-yl]-methanone] | 1000 to 10000 | –
CCC(=O)N1CCC(Oc2ccc(-c3ccc4cnc(N(C)C)cc4c3)cc2)CC1 [Example 421, 1-{4-[4-(3-Dimethylaminoisoquinolin-6-yl)-phenoxy]-piperidin-1-yl}-propan-1-one] | 1000 to 10000 | –
Cc1c(-c2ccc(OC3CCN(C(=O)C(C)F)CC3)cc2)ccc2cccnc12 (centres unmarked) [Example 359, 2-Fluoro-1-{4-[4-(8-methylquinolin-7-yl)-phenoxy]-piperidin-1-yl}-propan-1-one, HCl] | 1 to 99 | –
O=C([C@H]1CCCO1)N1CCC(Oc2ccc(-c3ccc4cc(Cl)cnc4c3)cc2)CC1 [Example 265, {4-[4-(3-Chloroquinolin-7-yl)-phenoxy]-piperidin-1-yl}-(R)-tetrahydro-furan-2-yl-methanone, TFA salt] | 1 to 99 | –
Cc1c(-c2ccc(OC3CCN(C(=O)C4CC4)CC3)c(F)c2)ccc2cccnc12 [Example 227, Cyclopropyl-{4-[2-fluoro-4-(8-methylquinolin-7-yl)-phenoxy]-piperidin-1-yl}-methanone] | 1 to 99 | –
Cc1ccc2cc(-c3ccc(OC4CCN(C(=O)N5CCCO5)CC4)cc3)cnc2c1 [Example 80, Isoxazolidin-2-yl-{4-[4-(7-methylquinolin-3-yl)-phenoxy]-piperidin-1-yl}-methanone] | 1 to 99 | –
Cc1c(-c2ccc(OC3CCN(C(=O)N4CCN(C)CC4)CC3)cc2)ccc2nccn12 [Example 598, [4-[4-(5-Methylimidazo[1,2-a]pyridin-6-yl)phenoxy]-1-piperidyl]-(4-methylpiperazin-1-yl)methanone] | – | 100 to 999
C[C@H]1CCO[C@H]1C(=O)N1CCC(Oc2ccc(-c3cnc4ccccc4c3)cc2)CC1 (racemic) [Example 154, ((2R,3S)/(2S,3R)-3-Methyl-tetrahydrofuran-2-yl)-[4-(4-quinolin-3-yl-phenoxy)-piperidin-1-yl]-methanone, HCl] | 1 to 99 | –
CCC(=O)N1CCC(Oc2ccc(-c3ccc4c(C)nccc4c3)cc2)CC1 [Example 425, 1-{4-[4-(1-Methylisoquinolin-6-yl)-phenoxy]-piperidin-1-yl}-propan-1-one] | 1 to 99 | –
CCC(=O)N1CCC(Oc2ccc(-c3ccc4cccnc4c3OCCN3CCOCC3)cc2)CC1 [Example 171, 1-(4-{4-[8-(2-Morpholin-4-yl-ethoxy)-quinolin-7-yl]-phenoxy}-piperidin-1-yl)-propan-1-one, 2HCl] | 1000 to 10000 | –
Cc1nccc2cc(-c3ccc(OC4CCN(C(=O)C5CC(F)(F)CO5)CC4)cc3)ccc12 (centres unmarked) [Example 165] | 100 to 999 | –

Compound | IC50 [1] [nM] | IC50 [2] [nM]
Nc1nccc2cc(-c3ccc(OC4CCN(C(=O)[C@H]5CCCO5)CC4)cc3)ccc12 [Example 454, {4-[4-(1-Aminoisoquinolin-6-yl)-phenoxy]-piperidin-1-yl}-(R)-tetrahydro-furan-2-yl-methanone] | 1 to 99 | –
O=C(C1CCCS1(=O)=O)N1CCC(Oc2ccc(-c3cnc4ccccc4c3)cc2)CC1 (centres unmarked) [Example 118, (1,1-Dioxidotetrahydrothiophen-2-yl)(4-(4-(quinolin-3-yl)phenoxy)piperidin-1-yl)methanone, HCl] | 1000 to 10000 | –
O=C(C1CC1)N1CCC(Oc2ccc(-c3ccc4cccnc4c3Cl)cc2)CC1 [Example 59, {4-[4-(8-Chloroquinolin-7-yl)-phenoxy]-piperidin-1-yl}-cyclopropyl-methanone] | 1 to 99 | –
Cc1ccc2cc(-c3ccc(OC4CCN(C(=O)C5CC5)CC4)cc3)cnc2c1 [Example 64, Cyclopropyl-{4-[4-(7-methylquinolin-3-yl)-phenoxy]-piperidin-1-yl}-methanone] | 100 to 999 | –
CCC(=O)N1CCC(Oc2ccc(-c3cnc(OC)c(OC)c3)cc2)CC1 [Example 498, 1-{4-[4-(5,6-Dimethoxypyridin-3-yl)-phenoxy]-piperidin-1-yl}-propan-1-one] | 1000 to 10000 | –
Cc1c(-c2ccc(OC3CCN(C(=O)N4CCCC4)CC3)cc2)ccc2cccnc12 [Example 94, [4-[4-(8-methyl-7-quinolyl)phenoxy]-1-piperidyl]-pyrrolidin-1-yl-methanone] | 1 to 99 | –
COc1cc2ncc(-c3ccc(OC4CCN(C(=O)C5CC5)CC4)cc3)cc2cc1Cl [Example 448, {4-[4-(6-Chloro-7-methoxyquinolin-3-yl)-phenoxy]-piperidin-1-yl}-cyclopropylmethanone] | 1000 to 10000 | –
CC(C)C(=O)N1CCC(Oc2ncc(-c3cnc4ccccc4c3)cn2)CC1 [Example 138, 2-Methyl-1-[4-(5-quinolin-3-yl-pyrimidin-2-yloxy)-piperidin-1-yl]-propan-1-one, 2HCl] | 1000 to 10000 | –
CCC(=O)N1CCC(Oc2ccc(-c3cnc4ccccc4c3)cc2F)CC1 [Example 6, 1-[4-(2-Fluoro-4-quinolin-3-yl-phenoxy)piperidin-1-yl]propan-1-one] | 1 to 99 | –
O=C(N1CCC(Oc2ccc(-c3ccc4cncn4c3)cc2)CC1)C1(O)CC1 [Example 302, (1-Hydroxycyclopropyl)-[4-(4-imidazo[1,5-a]pyridin-6-yl-phenoxy)-piperidin-1-yl]-methanone] | 1 to 99 | –
CC(C)C(=O)N1CCC(Oc2ccc(-c3ccc4cnccc4c3)nc2)CC1 [Example 148, 1-[4-(6-Isoquinolin-6-yl-pyridin-3-yloxy)-piperidin-1-yl]-2-methyl-propan-1-one, 2HCl] | 1000 to 10000 | –
CCC(=O)N1CCC(Oc2ccc(-c3ccc4cccnc4c3C)cc2)CC1C (mixture of isomers) [Example 363, 1-{2-Methyl-4-[4-(8-methylquinolin-7-yl)-phenoxy]-piperidin-1-yl}-propan-1-one, HCl] | 100 to 999 | –
CCC(=O)N1CCC(Oc2ccc(-c3cnc4ccccc4c3)c(F)c2)CC1 [Example 200, 1-[4-(3-Fluoro-4-quinolin-3-yl-phenoxy)-piperidin-1-yl]-propan-1-one] | 1 to 99 | –
O=C(C1CC1)N1CCC(Oc2ncc(-c3cnc4ccccc4c3)cn2)CC1 [Example 139, Cyclopropyl-[4-(5-quinolin-3-yl-pyrimidin-2-yloxy)-piperidin-1-yl]-methanone, 2HCl] | 1000 to 10000 | –
Cc1cc2cccnc2cc1-c1ccc(OC2CCN(C(=O)[C@H]3CCCO3)CC2)cc1 [Example 275, {4-[4-(6-Methylquinolin-7-yl)-phenoxy]-piperidin-1-yl}-(R)-tetrahydro-furan-2-yl-methanone] | 100 to 999 | –
CON(C)C(=O)N1CCC(Oc2ccc(-c3cnc4ccccc4c3C)cc2)CC1 [Example 83, 4-[4-(4-Methylquinolin-3-yl)-phenoxy]-piperidine-1-carboxylic acid methoxymethyl-amide] | 1 to 99 | –
O=C(C1CC1)N1CCC(Oc2ccc(-c3cnc4c(c3)CCCC4)cc2)CC1 [Example 19, Cyclopropyl-{4-[4-(5,6,7,8-tetrahydro-quinolin-3-yl)-phenoxy]-piperidin-1-yl}-methanone] | 1000 to 10000 | –
CCC(=O)N1CCC(Oc2ccc(-c3cnc4ccccc4c3C)cc2F)CC1 [Example 228, 1-{4-[2-Fluoro-4-(4-methylquinolin-3-yl)-phenoxy]-piperidin-1-yl}-propan-1-one] | 100 to 999 | –
Cc1c(-c2ccc(OC3CCN(C(=O)NCCN4CCCC4)CC3)cc2)ccc2cccnc12 [Example 530, 4-[4-(8-Methyl-7-quinolyl)phenoxy]-N-(2-pyrrolidin-1-ylethyl)piperidine-1-carboxamide HCl] | – | 1 to 99
